The values below come from patent US4549988A, “3H-2-Benzazepines” (Hoffmann-La Roche Inc., priority 1983, dated 1985).

Data set [1] relates to metrazol convulsive seizures. As to the kind of experiment: antimetrazol test (oral compound, protection from metrazol-induced convulsive seizures). Format: in vivo. To be noted: Mus musculus, 1 h, mice, one hour before metrazol s.c., Miller-Tainter method. The procedure:
Periodically a metrazol standardization test precedes the assay to ascertain the quantity of metrazol, administered to control mice, sufficient to induce convulsive seizures in all animals. This is usually 125 mg/kg. In the antimetrazol test, a compound is administered orally to groups of four mice at various dose levels. One hour later, metrazol (at a dose level previously determined in the standardization test) is administered subcutaneously and the animals are observed for protection from convulsive seizures. Results are recorded as the number of animals protected against convulsions. The dose at which 50% of the animals are protected from convulsive seizures is expressed as the ED50. On active compounds, 8 animals employed per dose group. The ED50 is calculated by the Miller-Tainter method (Proc.Soc.Exp.Med. and Bio., 57, 261, 1944).

Data set [2] in a line: Toxicity, 24 hr. LD50 (PO). To be noted: in vivo.
The target of the next data set is ^3 H--Imipramine Binding. Briefly: imipramine binding assay (3H-imipramine, rat cortex homogenate). To be noted: 15 minutes at room temperature, nonspecific binding by 10^-3 M imipramine. On the set-up: species or system Sprague Dawley male rats. The procedure:
IMIPRAMINE BINDING ASSAY METHOD
Sprague Dawley male rats (180 g) are decapitated and the brains immediately placed on ice. Cortex is dissected and homogenized in 8 volumes of 0.25M sucrose. Homogenate is centrifuged at 2900 rpm (1000×g) in a Sorvall RCLB centrifuge with a SM 24 head. Supernatant is decanted and polytronized for 60 seconds using a Brinkmann Polytron (Model PT-10) at setting 5. Dilutions of imipramine hydrochloride are made in ehtanol (1:5). Each assay sample contains: 1.8 ml of Krebs Ringer Buffer, 20 μl of imipramine or other drugs and 20 μl of ^3 H-imipramine ([…]). The ^3 H-imipramine is from New England Nuclear #NET 576, 20-40 curies/millimole. Imipramine (10^-3 M) is used to define nonspecific binding. Incubation is for 15 minutes at room temperature. Samples are then put in ice bath for 5 minutes. Each sample is filtered on a 45-place manifold (E. Sandbek Co., Airville, Pa.). Filter is a Whatman GF/B. Filters are placed in 13 ml of aquasol and shaken for 2 hours, then the radioactivity trapped on the filter is determined by liquid scintillation spectrometry.

Each structure is given as a SMILES string.

As usually defined, the ED50 is the dose that gives a 50% effect, or the effect in half of the subjects. Read a high ED50 as a need for a large dose. Usually LD50 stands for the dose at which mortality reaches 50%. Lower therefore signals greater toxicity. In turn, `[O-][N+]1=C(c2ccccc2)c2cc(Cl)ccc2C=CC1` [8-Chloro-1-phenyl-3H-2-benzazepine-2-oxide] gave an ED50 in data set [1] of 5.2 mg/kg. This compound also yielded an LD50 at 24 h in data set [2] above 1000 mg/kg.

One may read the IC50 as the concentration that inhibits the measured activity by half. A high value points to a need for much substance. On to `Cl.Cl.NCC#CC1=CCN=C(c2ccccc2F)c2cc(Cl)ccc21` [8-Chloro-5-(1-amino-2-propyn-3-yl)-1-(2-fluorophenyl)-3H-2-benzazepine dihydrochloride], for which, in data set [1], the ED50 was 3 mg/kg. In data set [2], this compound yielded a median lethal dose (LD50) at 24 h of 500 mg/kg. Besides, the IC50 at ^3 H--Imipramine Binding was 20 µM.

`Cl.Cl.NCC#CC1=CCN=C(c2ccccc2)c2cc(Cl)ccc21` [8-Chloro-5-(1-amino-2-propyn-3-yl)-1-phenyl-3H-2-benzazepine dihydrochloride]: the ED50 in data set [1] amounted to 32 mg/kg. For the same compound, the LD50 at 24 h in data set [2] came out at 500 mg/kg. Moreover, the IC50 on ^3 H--Imipramine Binding was 11 µM.

In data set [1], `CN(C)CC#CC1=CCN=C(c2ccccc2F)c2cc(Cl)ccc21.Cl.Cl` [8-Chloro-5-(1-dimethylamino-2-propyn-3-yl)-1-(2-fluorophenyl)-3H-2-benzazepine dihydrochloride] had an ED50 of 19 mg/kg. The compound further had an LD50 at 24 h in data set [2] above 1000 mg/kg.

With `CN(C)CCCN1c2ccccc2CCc2ccccc21` [Imipramine, reference compound], at ^3 H--Imipramine Binding, the IC50 is 7.1 µM.
